Each compound was assayed on D54 ERlucT glycosylation luciferase reporter, luminescence, 24 h (assay: blockers of NLG process in reporter cells – D54 ERlucT cells, luminescence, cherry-picks, dose response (AID 624491);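 also: signal gain reflects blocked N-linked glycosylation of a luciferase reporter; actives raise luciferase signal so AC26 marks activators of the reporter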).

In order of falling AC26:
1. Cc1cc(C)nc(SC2CC(=O)N(c3ccc(C)c(C)c3)C2=O)n1 (configuration not stated)  14300 nM
2. COc1ccc(NC(=O)c2cccc3c(-c4ccc(O)c(OC)c4)coc23)cc1  13400 nM
3. COc1ccc(Nc2nc(C)nc3sc4c(c23)CCC4)cc1O  11400 nM
4. CC(=O)Nc1ccc(CC(=O)NCCC(c2ccccc2)c2ccccc2)cc1  11300 nM
5. Cc1cc(NC(=O)NC(=O)c2ccccc2NC(=O)CN)ccc1Oc1ncc(Br)cn1  11000 nM
6. COc1cc(/C=N/Nc2nc3c(c(=O)n(C)c(=O)n3C)n2Cc2ccccc2)ccc1OC(=O)c1ccco1  10500 nM
7. COc1ccc2nc(SCC(=O)NC3CCCC3)c(C)cc2c1  10200 nM
8. CCn1c(=O)cc(SCC(=O)NCCCN2CCN(c3ccc(F)cc3)CC2)c2ccccc21  9830 nM
9. COc1ccc(S(=O)(=O)N2CCCOC2CNC(=O)C(=O)NCCc2ccco2)cc1C (configuration not stated)  9490 nM
10. Cc1[nH]c2ccc(C(=O)N3CCN(c4cccc(Cl)c4)CC3)cc2c1C  8650 nM
11. CC1CC(C)CN(C(=O)/C=C/c2ccc([N+](=O)[O-])s2)C1 (configuration not stated)  8460 nM
12. COc1ccccc1N1CCN(C(=O)c2oc3ccccc3c2C)CC1  8000 nM
13. CC1(C(=O)Nc2ccc3c(c2)OCO3)Cc2c(-c3ccc4c(c3)OCO4)ccnc2O1 (configuration not stated)  7650 nM
14. CC(C)(C)c1ccc(OCc2ccc(C(=O)Nc3cccnc3)o2)cc1  7560 nM
15. COc1cc(/C=C2\SC(=S)N(CCC(=O)N3CCCCC3)C2=O)cc(OC)c1OC  6840 nM
16. CC1(C(=O)NCc2ccc(F)c(F)c2)Cc2c(-c3ccc4c(c3)OCO4)ccnc2O1 (configuration not stated)  6730 nM
17. COc1ccc(-n2c(NNC(C)=O)nc3sc4c(c3c2=O)CCCC4)cc1  6720 nM
18. Cc1cc(C)c2sc(NC(=O)c3ccc([N+](=O)[O-])o3)nc2c1  6640 nM
19. COc1cc2c(cc1OC)CN(C(=O)c1ccc3nc[nH]c3c1)CC2  6320 nM
20. CCOC(=O)c1nnc(-c2ccc(C)cc2)nc1Sc1ccccc1Cl  6170 nM
21. O=C(COc1ccccc1)Nc1cccc(-c2cn3cccnc3n2)c1  5880 nM
22. Cc1ccc2nc(SCc3nnc(-c4ccccc4[N+](=O)[O-])o3)c(C#N)cc2c1  5790 nM
23. O=C1/C(=C\c2ccc(Cl)cc2)CCC1CNc1ccc(Cl)cc1 (configuration not stated)  5490 nM
24. O=C(N/N=C/C(Br)=C/c1ccccc1)c1cc(-c2ccco2)[nH]n1  5350 nM
25. CC(C)(C)c1nnc2sc(SCC(=O)c3ccc4c(c3)OCCO4)nn2c1=O  5230 nM
26. Nc1nc(=S)c2ncn(C3OC(CO)C(O)C3O)c2[nH]1 (configuration not stated)  4980 nM
27. CC(C)/C=C1\CC/C(=C\c2cccnc2)C1=O  4840 nM
28. COC(=O)CNC(c1ccccc1)c1cc(Br)ccc1NC(=O)CCN1CCOCC1 (configuration not stated)  4810 nM
29. COc1ccc(/C=C/C(=O)Oc2cccc(/C=N/NC(=O)COc3c(C)cccc3C)c2)cc1  4770 nM
30. Cc1ccc(C(=O)c2coc3c2C(=O)C(=O)c2ccccc2-3)cc1  4630 nM
31. CC(=O)Nc1cccc(-c2ccnc3c2CC(C)(C(=O)NCCC(F)(F)F)O3)c1 (configuration not stated)  4320 nM
32. NNC(=O)c1oc2nc(-c3ccco3)cc(-c3ccco3)c2c1N  4260 nM
33. COC(=O)c1cc(=O)n(-c2ccc(F)cc2)c(=Nc2ccc(F)cc2)s1  4230 nM
34. CN(C)Cc1c(C(=O)N/N=C/c2ccccc2OCc2c(F)cccc2Cl)nnn1-c1nonc1N  4210 nM
35. COc1ccc(OC)c(-c2nnc3n2N=C(c2ccc(OC)c(OC)c2)CS3)c1  4160 nM
36. CC(C)(C)c1ccc(OCC(=O)Nc2ccncc2)c(Br)c1  4130 nM
37. CCOC(=O)[C@H]1[C@H]2COc3ccc(Br)cc3[C@@H]2N2C(=O)c3cc(OC)c(OC)cc3NC(=O)[C@@]12C  4040 nM
38. CC1=CC(C)[C@H](/C=N/n2c(=O)[nH]c3c([nH]c4ccc(C)cc43)c2=O)C(C)C1 (some centres not stated)  4040 nM
39. O=C(NCCc1ccccc1)c1cc(-c2ccco2)on1  3780 nM
40. COc1ccc(/C=N\NC(=O)c2ccccc2F)cc1COc1ccc(F)cc1F  3550 nM
41. Nc1ccc(-c2cc(NC=O)c3ncc(-c4cccc(C(F)(F)F)c4)n3c2)cn1  3430 nM
42. COc1ccc(CCn2c(O)c(C=NCc3ccc4c(c3)OCO4)c(=O)[nH]c2=O)cc1OC  3430 nM
43. NC(=O)c1ccc(NC(=O)CN2C(=O)NC(c3ccccc3)(c3ccccc3)C2=O)cc1  3410 nM
44. O=C(C=Cc1cccc(O)c1)c1ccccc1O  3290 nM
45. NC(=O)COc1ccc(C(=O)/C=C2/C(=O)Nc3ccccc32)cc1  3180 nM
46. COc1ccc(OC)c(N(CC(=O)Nc2cccc3ccccc23)S(C)(=O)=O)c1  3100 nM
47. CS(=O)(=O)c1cccc(C(=O)Nc2ccc(-c3nc4ccccc4[nH]3)cc2)c1  3070 nM
48. Cn1c(=O)cc(OCCCC(=O)Nc2ccc3c(c2)OCCO3)c2ccccc21  3060 nM
49. Cc1cc(=O)n2c3c(c4c(cc13)c(CN(C)C)cc(=O)n4C)OC2  3030 nM
50. Cc1nnc2c3ccccc3c(-c3ccccc3)nn12  2870 nM
51. COc1ccc(C=CC(=O)c2ccc3cc(OC)c(OC)cc3c2)cc1OC  2860 nM
52. COc1cc(C(=O)Nc2ccc3c(c2)nc(C)n3C)cc(OC)c1OC  2690 nM
53. COc1ccc(C(=O)C=Cc2ccc(OCc3ccccc3)c(OC)c2)cc1OC  2690 nM
54. CCN(CCCNC(=O)COc1cc(=O)n(CC)c2ccccc12)Cc1ccccc1  2530 nM
55. CC(=O)c1cccc(-c2ccnc3c2CC(C(=O)Nc2ccc4c(c2)OCO4)O3)c1 (configuration not stated)  2430 nM
56. CCN(CC)S(=O)(=O)c1cccc(C(=O)N/N=C/c2ccc([N+](=O)[O-])o2)c1  2340 nM
57. O=c1[nH]c(-c2ccccc2)nc2sc(-c3ccccc3)cc12  2320 nM
58. Cc1ccc(-n2nc(C)c(NC(=O)CCl)c2C)cc1  2210 nM
59. CCn1c(SCC(=O)N/N=C/c2ccc(C)s2)nc2ccccc21  2200 nM
60. C=CCOc1ccc(C(=O)Nc2ccccc2C(=O)NCc2cccnc2)cc1  2160 nM
61. C[C@@H](NC(=O)c1nc[nH]c1C(=O)N1CCN(c2ccccc2)CC1)c1ccccc1  2110 nM
62. Cn1c(=O)n(C)c2cc(NC(=O)CCl)ccc21  2090 nM
63. Cc1c(C(=O)N/N=C/c2cccnc2)sc(N)c1C#N  2000 nM
64. COc1ccccc1NC(=O)c1cnc(SCC(=O)NCC2CCCO2)n(C)c1=O (configuration not stated)  1970 nM
65. CCN(CC)c1ccc(/C=N\NC(=O)c2cccc3cc[nH]c23)cc1  1860 nM
66. O=C(Nc1cccc(NC(=O)c2cccs2)c1)c1ccc([N+](=O)[O-])o1  1820 nM
67. O=C(Cn1cnc2c(NCc3ccccc3)ncnc21)NCc1ccccc1  1760 nM
68. CCOC(=O)C(C)Oc1cccc2c(=O)n(CC(=O)NCc3ccc(F)cc3)ccc12 (configuration not stated)  1720 nM
69. CCN1C(=O)c2cccc3c(S(=O)(=O)N4CCC(C)CC4)ccc1c23  1720 nM
70. Cc1ccccc1OCCc1c(C)[nH]c(=S)[nH]c1=O  1700 nM
71. O=c1[nH]c(=O)n([C@H]2C[C@H](O)[C@@H](CO)O2)cc1Br  1690 nM
72. CCOc1cc(N2CCOCC2)c(OCC)cc1NC(=O)c1[nH]c(C)c(C(C)=O)c1C  1620 nM
73. COc1cc(C(=O)OCCCN2CCCN(CCCOC(=O)c3cc(OC)c(OC)c(OC)c3)CC2)cc(OC)c1OC  1550 nM
74. CCn1c(=O)c([N+](=O)[O-])c(Cl)c2ccccc21  1390 nM
75. Cc1c(C(=O)OCC(C)C)[nH]c2c1C(=O)CC(c1cccs1)C2 (configuration not stated)  1170 nM
76. COc1ccc(CC(=O)N(Cc2ccccc2)c2ccc(C)cc2)cc1S(=O)(=O)N1CCOCC1  1160 nM
77. Cc1ccc2nc3c(cc(C(N)=S)c(=N)n3CCCOC(C)C)c(=O)n2c1  1140 nM
78. COc1ccc2[nH]c(C(=O)N3CCN(Cc4ccccc4)CC3)cc2c1OC  1130 nM
79. c1ccc(CNc2nc(NCCc3ccncc3)c3sccc3n2)cc1  1120 nM
80. Oc1ccc(Nc2nc(NCC3CCCO3)c3ccccc3n2)cc1 (configuration not stated)  1110 nM
81. CO/N=C\CC(=O)Nc1ccc(Cl)cc1Cl  1070 nM
82. CC(C)(C)S(=O)(=O)N1C[C@@H]2CC/C=C\C/C(c3ccccc3)=C\2[C@H]1CCO  1050 nM
83. O=C(/C(=C\c1ccccc1)c1nc2ccccc2[nH]1)c1ccc(Cl)cc1  1000 nM
84. CC(=O)c1cccc(Nc2c3c(nc4ccccc24)CCC3)c1  819 nM
85. Cc1cc2oc(C(=O)Nc3c(C)n(C)n(-c4ccccc4)c3=O)c(C)c2cc1Cl  781 nM
86. C=CCn1c(SCC(=O)c2[nH]c(C)c(C(=O)OC)c2C)nc2scc(-c3ccc(OC)c(OC)c3)c2c1=O  703 nM
87. COc1ccc(Cl)cc1NC(=O)CN(C)CC(=O)Nc1ccccc1N1CCOCC1  658 nM
88. COc1ccc(CCn2c(=N)c(C(=O)NCC3CCCO3)cc3c(=O)n4cccc(C)c4nc32)cc1OC (configuration not stated)  652 nM
89. O=C(CCl)N1CCCC1c1ccc2c(c1)OCCO2 (configuration not stated)  608 nM
90. O=C(Nc1ccncc1)C1CCCN(S(=O)(=O)c2cccc3cccnc23)C1 (configuration not stated)  579 nM
91. COc1ccc2c(c1)[C@H]1[C@H](CO2)[C@H](c2ccccc2)[C@]2(C)C(=O)Nc3ccc(F)cc3C(=O)N12  568 nM
92. COc1cc(-c2nc3ccc(N4CCN(C)CC4)cc3[nH]2)cc(OC)c1OC  535 nM
93. O=C(c1ncn(Cc2ccccc2)c1C(=O)N1CCN(c2ccccc2)CC1)N1CCN(c2ccccc2)CC1  513 nM
94. CC(=O)C1=C(O)C(=O)N(c2ccc(Br)cn2)C1c1ccc(Br)cc1 (configuration not stated)  491 nM
95. Cc1ccc(CCC(=O)Nc2ncc(Cc3cc(Cl)ccc3Cl)s2)o1  476 nM
96. COc1ccc2c(c1)[C@H]1[C@H](CO2)[C@H](c2ccccc2)[C@]2(C)C(=O)Nc3ccc(Cl)cc3C(=O)N12  426 nM
97. COc1cc2c(c(OC)c1OC)-c1ccc(OC)c(=O)cc1[C@@H](N(C)CC#CCO)CC2  380 nM
98. COc1ccc(N2CCc3c(C)nc4c(OC)cccc4c32)cc1  368 nM
99. CCOC(=O)c1[nH]c(C)c(C(=O)Nc2cc(OC)ccc2OC)c1C  322 nM
100. O=C1Cc2c([nH]c3ccc([N+](=O)[O-])cc23)-c2ccccc2N1  318 nM
101. Nc1cc2c3c(cccc3c1)C(=O)N(CCN1CCCC1)C2=O  275 nM
102. COc1ccc(NC(=O)C2Cc3c(-c4cccc(C(C)=O)c4)ccnc3O2)cn1 (configuration not stated)  203 nM
103. Cc1cccc2sc(NC(=O)c3cc(S(=O)(=O)N(C)C)ccc3N3CCCC3)nc12  157 nM
104. COc1ccc(/C(C)=N/NC(=O)c2ccccc2OCc2ccccc2)c(OC)c1  121 nM
105. COc1ccc(NC(=O)C(=O)c2cn(CC(=O)N3CCCC3)c3ccccc23)cc1  105 nM
106. CN1/C(=C/C=C(/C#N)C(N)=O)C(C)(C)c2ccccc21  55.6 nM
107. O=C(NCc1ccccc1)C1Cc2c(-c3cccc(F)c3)ccnc2O1 (configuration not stated)  11.2 nM
